Assay results reported in patent publication US20150018305A1, “SIRTUIN INDUCER, TISSUE REPAIRING AGENT, HEPATOCYTE GROWTH FACTOR INDUCER, TISSUE HOMEOSTASIS MAINTENANCE AGENT, AND TLR4 AGONIST, HAVING HYALURONIC ACID FRAGMENT AS ACTIVE INGREDIENT” (HYALURONAN RESEARCH INSTITUTE, INC., priority 2012, published 2015).

Experiments:
[1] = tested on: stem cells of human epidermal keratinocytes; test: Count of small dividing cells with high sirtuin protein expression, with or without TLR4/MD2 (Test Examples 4-6); assay type: cell-based; details: for sirtuin protein expression in stem cells (count of small dividing cells with high sirtuin expression) vs negative control: 24 hours; for sirtuin induction in stem cells upon addition of TLR4/MD2: 10 ng/ml fragment plus 1 g/ml of TLR4/MD2
Description: A test of sirtuin induction in human epidermal keratinocytes was conducted in the same manner as in Test Example 1.
The results are shown as average count within the observed visual field.
In the meantime, similar observations were made in relation to human epidermal keratinocytes cultured in a culture broth to which 10 ng/ml of hyaluronic acid fragment (4mer) and 1 g/ml of TLR4/MD2 (TLR4 (toll-like receptor 4) protein produced by genetic recombination techniques, made by R&D Systems Inc.) were added.
A test similar to Test Example 5 was carried out, using chemically synthesized three-unit size hyaluronic acid fragments (L3mer) in place of hyaluronic acid fragment (4mer).

liver of aged rat = test: Liver of aged rat preserved in organ preservation solution, microscopy and bleb count (Test Example 14); details: for sinusoidal constriction and appearance of blebs in liver tissue slice: 100 ng/ml in organ preservation solution, SD rats aged 24 months
Description: The effect of action of the hyaluronic acid fragment on the liver of aged rat was investigated. The following test solutions were prepared.
(Test Solutions) • Organ preservation solution (University of Wisconsin solution: the standard solution used for organ preservation) • The above organ preservation solution, into which hyaluronic acid fragment (4mer) was dissolved to a final concentration of 100 ng/ml • The above organ preservation solution, into which hyaluronic acid fragment (L3mer) was dissolved to a final concentration of 100 ng/ml • The above organ preservation solution, into which hyaluronic acid fragment (L3mer) was dissolved to a final concentration of 100 ng/ml, then dissolving TLR4/MD2 into the above organ preservation solution, to a final concentration of 10 μg/ml.
SD rats aged 24 months (aged rats) were injected with the test solutions from the hepatic portal, and after perfusion of 7.5 ml, were preserved for six hours in the same solution at 37° C. Slices were prepared from blocks prepared by freezing of the livers embedded in OCT compound, and were subjected to microscope examination.
Prior to preservation, distinct sinusoids could be observed. […] Blebs (bubbles) that appear in ischemic liver tissue arise as a result of an activation of Ca ion-dependent proteolytic enzymes and a disorder of the cytoskeletal system, in which lowered ATP levels due to ischemia lead to effusion of Ca ions from the mitochondria to the cellular cytoplasm. In the course of passing through these changes, the liver cells experience cell death. Such changes have been confirmed to occur in clinical conditions such as pharmaceutical toxicity, aging, and the like, and in concanavalin A-induced liver damage.

[2] = tested on: human large intestine epithelial cells (HT29 cells); test: Hydrogen peroxide induced aging of human large intestine epithelial cells, MTS assay (Test Examples 16-18); assay type: cell-based; details: for suppression of cellular aging (MTS value, OD 490 nm): hydrogen peroxide 10 μM 15 min; for suppression of cellular aging with TLR4/MD2 added (MTS): hydrogen peroxide 10 μM, 100 ng/ml plus TLR4/MD2 10 μg/ml, 3 hours
Description: Human large intestine epithelial cells (HT29 cells) were experienced cellular aging (decline in mitochondrial activity due to injury, or a drop in the MTS value once cell death occurs) due to stimulation by the hydrogen peroxide when treated with hydrogen peroxide, and it was investigated whether this process is affected by treatment with the hyaluronic acid fragment. Specifically, the following test was performed.
Using a DMEM culture medium (made by Wako Pure Chemical Industries, Ltd.), human large intestine epithelial cells (HT29 cells) were cultured by usual methods at 37° C. under 5% CO2. Hydrogen peroxide was added to the culture medium to a final concentration of 10 μM to bring about stimulation for a 15-minute period, and the culture broth was then transferred to DMEM culture medium containing no hyaluronic acid fragments; to DMEM culture medium containing hyaluronic acid fragment (4mer) in a final concentration of 100 ng/ml; or to DMEM culture medium containing the hyaluronic acid fragment (4mer) plus TLR4/MD2 in a final concentration of 10 μg/ml, and cultured for 3 hours.
(§1) After 3 hours had passed, an MTS assay was performed. On the basis of the action, in which MTS is converted to formazan by dehydrogenation in the mitochondria of the cell, OD 490 nm was measured to measure mitochondrial function.
Using hyaluronic acid fragment (4mer), hyaluronic acid fragment (L4mer) and hyaluronic acid fragment (L3mer) as test substances, tests similar to those of Test Example 16 were performed, except that the culture time following transfer to the culture medium containing the test substance was one hour.
Tests similar to those of Test Example 16 were performed, except for using hyaluronic acid fragment (L4mer), and hyaluronic acid fragment (L3mer) as test substances.

[3] = tested on: human oral epithelial cells (Ca9-22 cells); test: Hydrogen peroxide induced aging of human oral epithelial cells, MTS assay (Test Example 19); assay type: cell-based; details: hydrogen peroxide 1 μM 15 min, then 100 ng/ml for 3 hours
Description: It was investigated whether the process, in which mitochondrial function of human oral epithelial cells (Ca9-22 cells) declines when treated with hydrogen peroxide, is affected by treatment with the hyaluronic acid fragment. Specifically, the following test was performed.
Using a DMEM culture medium (made by Wako Pure Chemical Industries, Ltd.), human oral epithelial cells (Ca9-22 cells) were cultured by usual methods at 37° C. under 5% CO2. Hydrogen peroxide was added to the culture medium to a final concentration of 1 μM to bring about stimulation for a 15-minute period, and the culture broth was then transferred to DMEM culture medium containing no hyaluronic acid fragments; to DMEM culture medium containing hyaluronic acid fragment (L3mer) in a final concentration of 100 ng/ml; to DMEM culture medium containing hyaluronic acid fragment (4mer) in a final concentration of 100 ng/ml; or to DMEM culture medium containing 900 kDa hyaluronic acid in a final concentration of 100 ng/ml, and cultured for 3 hours.
as §1

Keratin K14 = test: Keratinocyte marker Keratin K14 in human epidermal keratinocytes (Test Example 22); assay type: cell-based; details: for Keratin K14 induction with TLR4/MD2 added: plus TLR4/MD2 1 μg/ml; for cells with high expression of Keratin K14 (immunostaining intensity): stimulated as in Test Example 1
Description: (§2) Human epidermal keratinocytes were stimulated in the same manner as in Test Example 1, except for using the 4mer or the L3mer as the hyaluronic acid fragment, and further adding TLR4/MD2 to a final concentration of 1 μg/ml.
The cells in each well were stained with anti keratin K14 antibody, and the immunostaining intensity was measured with an Array Scan scanning device (made by Thermo Scientific). Keratin K14 is a marker of basal layer keratinocytes.

filaggrin = test: Keratinocyte marker Filaggrin in human epidermal keratinocytes (Test Example 23); assay type: cell-based; details: for filaggrin induction with TLR4/MD2 added: plus TLR4/MD2 1 μg/ml; for cells with high expression of filaggrin (immunostaining intensity): stimulated as in Test Example 1
Description: as §2
The cells in each well were stained with the anti filaggrin antibody, and the immunostaining intensity was measured with an Array Scan scanning device (made by Thermo Scientific). Filaggrin, which is produced by granular layer keratinocytes, is a marker of mature keratinocytes.

[4] = then test substance for one hour

SMILES: CC(=O)N[C@H]1[C@H](O[C@H]2[C@H](O)[C@@H](O)[C@H](O[C@H]3[C@H](O)[C@@H](CO)OC(O)[C@@H]3NC(C)=O)O[C@@H]2C(=O)O)O[C@H](CO)[C@@H](O)[C@@H]1O[C@@H]1O[C@H](C(=O)O)[C@@H](O)[C@H](O)[C@H]1O (some centres unmarked) [4mer, GlcA(-GlcNAc-GlcA)1-GlcNAc]
- sirtuin protein expression in stem cells (count of small dividing cells with high sirtuin expression) vs negative control ([1]; 0.01 ng/ml): markedly promoted
- sirtuin induction in stem cells upon addition of TLR4/MD2 [1]: completely inhibited
- sirtuin protein expression in stem cells (count of small dividing cells with high sirtuin expression) vs negative control ([1]; 10 ng/ml): markedly promoted
- sinusoidal constriction and appearance of blebs in liver tissue slice (liver of aged rat; six hours at 37° C.): sinusoidal constriction and appearance of blebs were suppressed
- suppression of cellular aging (MTS value, OD 490 nm) ([2]; then 100 ng/ml for 3 hours): suppressed cellular aging
- suppression of cellular aging (MTS value, OD 490 nm) [2, 4]: showed effect in suppressing cellular aging
- suppression of cellular aging with TLR4/MD2 added (MTS) [2]: inhibited by addition of TLR4/MD2
- suppression of cellular aging (MTS, mitochondrial function) [3]: suppress cellular aging
- Keratin K14 induction with TLR4/MD2 added (Keratin K14): inhibited by addition of TLR4/MD2
- cells with high expression of Keratin K14 (immunostaining intensity) (Keratin K14): cells with high expression of Keratin K14 increased
- filaggrin induction with TLR4/MD2 added (filaggrin): inhibited by addition of TLR4/MD2
- cells with high expression of filaggrin (immunostaining intensity) (filaggrin): cells with high expression of filaggrin increased

SMILES: CC(=O)NC1C(O[C@@H]2OC(C(=O)O)[C@@H](O)C(O)C2O)[C@H](O)C(CO)O[C@H]1O[C@@H]1C(C(=O)O)O[C@@H](OCCCN=[N+]=[N-])C(O)C1O (some centres unmarked) [L3mer]
- sirtuin induction in stem cells upon addition of TLR4/MD2 [1]: substantially completely inhibited
- sirtuin protein expression in stem cells (count of small dividing cells with high sirtuin expression) vs negative control ([1]; 10 ng/ml): give rise to sirtuin induction
- sinusoidal constriction and appearance of blebs in liver tissue slice (liver of aged rat; six hours at 37° C.): sinusoidal constriction and appearance of blebs were suppressed
- effect in suppressing the appearance of blebs with TLR4/MD2 added (bleb count) (liver of aged rat; 100 ng/ml plus TLR4/MD2 10 μg/ml): reduced by the addition of TLR4/MD2
- condition of liver tissue slice with TLR4/MD2 added (liver of aged rat; 100 ng/ml plus TLR4/MD2 10 μg/ml, six hours at 37° C.): numerous blebs (bubbles) appeared
- effect of suppressing the appearance of blebs (bleb count per unit surface area) (liver of aged rat; 100 ng/ml, comparison L3mer vs 4mer): higher with L3mer treatment than with 4mer treatment
- suppression of cellular aging (MTS value, OD 490 nm) ([2]; then 100 ng/ml for 3 hours): showed effect in suppressing cellular aging
- suppression of cellular aging (MTS value, OD 490 nm) [2, 4]: showed effect in suppressing cellular aging
- suppression of cellular aging with TLR4/MD2 added (MTS) [2]: inhibited by the addition of TLR4/MD2
- suppression of cellular aging (MTS, mitochondrial function) [3]: suppress cellular aging
- Keratin K14 induction with TLR4/MD2 added (Keratin K14): inhibited by addition of TLR4/MD2
- cells with high expression of Keratin K14 (immunostaining intensity) (Keratin K14): cells with high expression of Keratin K14 increased
- filaggrin induction with TLR4/MD2 added (filaggrin): inhibited by addition of TLR4/MD2
- cells with high expression of filaggrin (immunostaining intensity) (filaggrin): cells with high expression of filaggrin increased
